Results published in ChEMBL document CHEMBL4385639, “1,2,3-Triazole-containing hybrids as leads in medicinal chemistry: A recent overview” (Bioorg Med Chem, 2019).
Values after ≈ are worked out from the molar mass of the structure shown.

Key:
MCF7 [1] = assay: cells; settings: Homo sapiens, MCF7, 72 h
Description: Antiproliferative activity against human MCF7 cells incubated for 72 hrs by MTT assay

U-937 [2] = assay: Antiinflammatory activity in human U937 cells assessed as inhibition of LPS-induced TNF-alpha production at 10 uM incubated for 24 hrs by ELISA relative to control; assay type: functional; settings: U-937, 24 h
U-937 [3] = assay: Antiinflammatory activity in human U937 cells assessed as inhibition of LPS-induced TNF-alpha production incubated for 24 hrs by ELISA; assay type: functional, cell-based; settings: U-937, 24 h
[4] = target: Serine/threonine-protein kinase PLK1 (Homo sapiens, UniProt P53350); assay: Inhibition of PLK1 PBD (unknown origin) using GPMQSpTPLNG-OH as fluorescent probe incubated for 30 mins by fluorescence polarization assay
HT-29 [5] = assay: Cytotoxicity against human HT-29 cells after 72 hrs by SRB assay; assay type: functional, cell-based; settings: HT-29, 72 h
HT-29 [6] = assay: Potency index, ratio of cisplatin IC50 to compound IC50 for cytotoxicity against human HT-29 cells; assay type: functional
[7] = target: Dihydroorotate dehydrogenase (quinone), mitochondrial (Homo sapiens, UniProt Q02127); assay: Inhibition of human recombinant N-terminal His-tagged DHODH (31 to 395 residues) expressed in Escherichia coli using dihydroorotate substrate preincubated for 5 mins followed by substrate addition by DCIP assay
Rattus norvegicus = assay: Anti-inflammatory activity against carrageenan-induced paw oedema in Wistar rat assessed as reduction in paw edema at 20 mg/kg administered 30 mins prior to carrageenan challenge measured at 3 hrs post carrageenan challenge by plethysmometric method relative to control; assay type: functional; design: scale not given: the % may be the effect or the level left
DU-145 = assay: Cytotoxicity against human DU145 cells incubated for 48 hrs by MTT assay; assay type: functional, cell-based; settings: DU-145, 48 h
[8] = Inhibition of soyabean 5-lipoxygenase using arachidonic acid as substrate incubated for 5 mins by spectrophotometric method; design: species or system Glycine max
[9] = target: Prostaglandin G/H synthase 2 (Homo sapiens, UniProt P35354); assay: Inhibition of human COX2 using arachidonic acid as substrate pretreated for 5 mins followed by substrate addition and measured after 20 mins by colorimetric assay
[10] = tested on: Mycobacterium tuberculosis; assay: Antitubercular activity against Mycobacterium tuberculosis H37Rv after 7 days by MABA; assay type: functional; settings: 168 h
A549 [11] = assay: Cytotoxicity against human A549 cells incubated for 24 hrs by MTT assay; assay type: functional, cell-based; settings: A549, 24 h
HeLa [12] = assay: Cytotoxicity against human HeLa cells incubated for 24 hrs by MTT assay; assay type: functional, cell-based
A549 [13] = assay: Induction of cell cycle arrest in human A549 cells assessed as accumulation at subG1 phase by flow cytometry relative to control; assay type: functional
HeLa [14] = assay: Induction of cell cycle arrest in human HeLa cells assessed as accumulation at subG1 phase by flow cytometry relative to control; assay type: functional
MCF7 [15] = assay: Cytotoxicity against human MCF7 cells incubated up to 48 hrs by MTT assay; assay type: functional, cell-based; settings: MCF7, 48 h
[16] = tested on: Staphylococcus epidermidis; assay: Antibacterial activity against Staphylococcus epidermidis MTCC 6880 incubated for 24 hrs by serial dilution method; assay type: functional; settings: MTCC 6880, 24 h
Pseudomonas aeruginosa = assay: Antibacterial activity against Pseudomonas aeruginosa MTCC 424 after 24 hrs by serial dilution method; assay type: functional; settings: MTCC 424, 24 h
Escherichia coli [17] = assay: Antibacterial activity against Escherichia coli MTCC 1652 after 24 hrs by serial dilution method; assay type: functional; settings: MTCC 1652, 24 h
Candida albicans = assay: Antifungal activity against Candida albicans MTCC 183 after 24 hrs by serial dilution method; assay type: functional; settings: MTCC 183, 24 h
[18] = Inhibition of quorum sensing system in Pseudomonas aeruginosa MH602 PlasB::gfp-ASV at 250 uM measured every 30 minutes over 20 hrs by fluorescence analysis relative to control
Urease = Urease (Canavalia ensiformis, UniProt P07374); assay: Inhibition of jack bean urease assessed as reduction in ammonia production by Berthelot colorimetric method
Escherichia coli [19] = assay: Antimicrobial activity against Escherichia coli NCIM 5051 incubated for 36 hrs by agar well diffusion method; assay type: functional
Staphylococcus aureus = assay: Antimicrobial activity against Staphylococcus aureus NCIM 5022 incubated for 36 hrs by agar well diffusion method; assay type: functional
[20] = Antioxidant activity assessed as inhibition of DPPH radical generation; assay type: functional
Cholinesterase [21] = target: Cholinesterase (Homo sapiens, UniProt P06276); assay: Inhibition of BChE (unknown origin) using butyrylthiocholine iodide as substrate preincubated for 15 mins followed by substrate addition and measured after 15 mins
[22] = target: Polyunsaturated fatty acid 5-lipoxygenase (Homo sapiens, UniProt P09917); assay: Inhibition of 5-lipoxygenase (unknown origin) incubated for 10 mins
[23] = target: Tyrosinase (Homo sapiens) (UniProt P14679); assay: Inhibition of tyrosinase (unknown origin) using L-DOPA as substrate preincubated with substrate for 2 mins followed by enzyme addition and measured after 10 min by spectrophotometric method relative to control
Bacillus subtilis = assay: Antibacterial activity against Bacillus subtilis MTCC 441 after 24 hrs by serial dilution method; assay type: functional; settings: MTCC 441, 24 h
A549 [24] = assay: Cytotoxicity against human A549 cells after 48 hrs by MTT assay; assay type: functional, cell-based; settings: A549, 48 h
HepG2 [25] = assay: Cytotoxicity against human HepG2 cells incubated for 72 hrs by MTT assay; assay type: functional, cell-based; settings: HepG2, 72 h
A549 [26] = assay: Cytotoxicity against human A549 cells incubated for 72 hrs by MTT assay; assay type: functional, cell-based; settings: A549, 72 h
[27] = target: Hepatocyte growth factor receptor (Homo sapiens, UniProt P08581); assay: Inhibition of cMET (unknown origin) using FAM-labeled peptide as substrate pre-incubated for 10 mins followed by substrate addition by mobility shift assay
MCF7 [28] = assay: Potency index, ratio of foretinib IC50 to compound IC50 for antiproliferative activity against human MCF7 cells; assay type: functional
HepG2 [29] = assay: Potency index, ratio of foretinib IC50 to compound IC50 for antiproliferative activity against human HepG2 cells; assay type: functional
A549 [30] = assay: Potency index, ratio of foretinib IC50 to compound IC50 for antiproliferative activity against human A549 cells; assay type: functional
Acetylcholinesterase = Acetylcholinesterase (Electrophorus electricus, UniProt O42275); assay: Inhibition of electric eel AChE using acetylthiocholine iodide as substrate preincubated for 3 mins followed by substrate addition by Ellman's method
Cholinesterase [31] = target: Cholinesterase (Equus caballus, UniProt P81908); assay: Inhibition of equine serum BuChE using butyrylthiocholine iodide as substrate preincubated for 3 mins followed by substrate addition by Ellman's method
Leishmania major = assay: Antileishmanial activity against Leishmania major 5-ASKH promastigotes incubated for 72 hrs by hemocytometer based cell counting method; assay type: functional, organism-based
Alpha glucosidase = Alpha glucosidase (Homo sapiens, UniProt O43451+P10253+P14410+Q2M2H8); assay: Inhibition of alpha-glucosidase (unknown origin) using p-nitrophenyl-alpha-D-glucopyranoside as substrate pre-incubated for 15 mins followed by substrate addition and measured for 20 mins by spectrophotometric analysis; assay type: protein assay
SNB-19 [32] = assay: Potency index, ratio of cisplatin IC50 to compound IC50 for cytotoxicity against human SNB19 cells; assay type: functional
SNB-19 [33] = assay: Cytotoxicity against human SNB19 cells after 72 hrs by WST-1 assay; assay type: functional, cell-based; settings: SNB-19, 72 h
Escherichia coli [34] = assay: Antimicrobial activity against Escherichia coli […]; assay type: functional
[35] = Inhibition of Saccharomyces cerevisiae alpha-glucosidase using p-nitrophenyl-alpha-D-glucopyranoside as substrate preincubated for 10 mins followed by substrate addition and measured after 20 mins by spectrophotometric analysis

Sequence of Tyrosinase (Homo sapiens) (P14679 whole entry): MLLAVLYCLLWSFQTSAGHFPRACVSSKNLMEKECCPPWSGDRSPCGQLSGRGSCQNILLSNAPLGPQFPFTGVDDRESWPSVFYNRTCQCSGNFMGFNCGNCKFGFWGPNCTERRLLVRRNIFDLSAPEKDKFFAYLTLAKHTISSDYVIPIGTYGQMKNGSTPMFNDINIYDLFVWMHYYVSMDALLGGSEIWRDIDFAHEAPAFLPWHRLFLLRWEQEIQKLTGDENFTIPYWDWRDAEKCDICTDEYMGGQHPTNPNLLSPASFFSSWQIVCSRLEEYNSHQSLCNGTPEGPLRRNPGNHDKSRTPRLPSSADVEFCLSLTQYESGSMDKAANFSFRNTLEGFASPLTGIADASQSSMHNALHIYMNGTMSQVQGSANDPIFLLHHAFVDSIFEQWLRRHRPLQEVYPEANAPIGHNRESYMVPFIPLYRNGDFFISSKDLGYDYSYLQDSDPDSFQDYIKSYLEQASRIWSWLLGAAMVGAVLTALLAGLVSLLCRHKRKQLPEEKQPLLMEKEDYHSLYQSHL
Sequence of Cholinesterase (Homo sapiens, UniProt P06276) (P06276 whole entry): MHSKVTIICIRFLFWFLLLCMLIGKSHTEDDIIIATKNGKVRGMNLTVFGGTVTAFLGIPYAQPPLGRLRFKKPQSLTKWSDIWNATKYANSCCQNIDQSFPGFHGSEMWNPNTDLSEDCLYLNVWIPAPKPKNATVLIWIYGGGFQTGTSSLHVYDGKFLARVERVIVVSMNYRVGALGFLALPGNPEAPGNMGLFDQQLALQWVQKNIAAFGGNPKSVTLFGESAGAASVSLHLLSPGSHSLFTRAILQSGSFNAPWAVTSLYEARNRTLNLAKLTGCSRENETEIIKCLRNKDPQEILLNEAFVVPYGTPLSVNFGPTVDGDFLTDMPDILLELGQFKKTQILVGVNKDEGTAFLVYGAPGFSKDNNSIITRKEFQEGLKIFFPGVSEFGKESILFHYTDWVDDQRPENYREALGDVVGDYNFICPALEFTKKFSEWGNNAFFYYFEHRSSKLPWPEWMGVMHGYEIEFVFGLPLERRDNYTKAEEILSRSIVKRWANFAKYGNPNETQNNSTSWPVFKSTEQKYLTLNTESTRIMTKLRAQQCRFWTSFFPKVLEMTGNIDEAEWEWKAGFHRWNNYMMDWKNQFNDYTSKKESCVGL
Sequence of Polyunsaturated fatty acid 5-lipoxygenase (P09917 whole entry): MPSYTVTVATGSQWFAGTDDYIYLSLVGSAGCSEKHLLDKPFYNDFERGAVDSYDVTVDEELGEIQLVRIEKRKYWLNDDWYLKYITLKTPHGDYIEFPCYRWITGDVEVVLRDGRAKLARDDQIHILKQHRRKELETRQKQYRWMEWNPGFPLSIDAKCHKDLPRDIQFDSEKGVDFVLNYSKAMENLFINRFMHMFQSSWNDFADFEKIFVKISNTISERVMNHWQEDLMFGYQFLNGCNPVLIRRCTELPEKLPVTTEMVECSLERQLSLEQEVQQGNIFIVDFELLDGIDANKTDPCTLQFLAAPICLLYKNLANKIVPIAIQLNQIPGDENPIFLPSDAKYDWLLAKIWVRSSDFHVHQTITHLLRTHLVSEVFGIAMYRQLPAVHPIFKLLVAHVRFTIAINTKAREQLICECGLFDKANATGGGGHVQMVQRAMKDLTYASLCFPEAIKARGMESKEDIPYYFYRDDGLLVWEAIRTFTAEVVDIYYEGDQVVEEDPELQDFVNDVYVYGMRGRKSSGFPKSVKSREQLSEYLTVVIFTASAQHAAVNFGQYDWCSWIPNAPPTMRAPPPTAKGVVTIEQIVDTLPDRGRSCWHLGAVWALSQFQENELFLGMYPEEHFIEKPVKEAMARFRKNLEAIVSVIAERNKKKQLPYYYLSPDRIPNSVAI
Sequence of Prostaglandin G/H synthase 2 (P35354 whole entry): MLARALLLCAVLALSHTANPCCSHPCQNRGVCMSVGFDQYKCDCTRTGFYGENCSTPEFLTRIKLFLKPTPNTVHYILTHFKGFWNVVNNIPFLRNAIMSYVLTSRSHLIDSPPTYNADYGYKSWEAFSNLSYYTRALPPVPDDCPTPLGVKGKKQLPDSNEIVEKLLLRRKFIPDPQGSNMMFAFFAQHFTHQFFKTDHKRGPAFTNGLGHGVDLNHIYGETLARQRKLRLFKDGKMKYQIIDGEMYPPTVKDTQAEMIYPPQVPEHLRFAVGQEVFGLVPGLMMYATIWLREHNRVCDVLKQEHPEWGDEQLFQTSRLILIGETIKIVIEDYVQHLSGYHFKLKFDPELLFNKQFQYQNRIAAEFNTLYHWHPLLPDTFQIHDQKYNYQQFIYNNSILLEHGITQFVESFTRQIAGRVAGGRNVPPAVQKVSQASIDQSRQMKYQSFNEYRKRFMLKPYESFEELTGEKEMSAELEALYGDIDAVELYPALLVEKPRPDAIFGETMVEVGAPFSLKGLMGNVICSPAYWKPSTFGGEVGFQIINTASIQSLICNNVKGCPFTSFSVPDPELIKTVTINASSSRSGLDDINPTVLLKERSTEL
Sequence of Hepatocyte growth factor receptor (P08581 whole entry): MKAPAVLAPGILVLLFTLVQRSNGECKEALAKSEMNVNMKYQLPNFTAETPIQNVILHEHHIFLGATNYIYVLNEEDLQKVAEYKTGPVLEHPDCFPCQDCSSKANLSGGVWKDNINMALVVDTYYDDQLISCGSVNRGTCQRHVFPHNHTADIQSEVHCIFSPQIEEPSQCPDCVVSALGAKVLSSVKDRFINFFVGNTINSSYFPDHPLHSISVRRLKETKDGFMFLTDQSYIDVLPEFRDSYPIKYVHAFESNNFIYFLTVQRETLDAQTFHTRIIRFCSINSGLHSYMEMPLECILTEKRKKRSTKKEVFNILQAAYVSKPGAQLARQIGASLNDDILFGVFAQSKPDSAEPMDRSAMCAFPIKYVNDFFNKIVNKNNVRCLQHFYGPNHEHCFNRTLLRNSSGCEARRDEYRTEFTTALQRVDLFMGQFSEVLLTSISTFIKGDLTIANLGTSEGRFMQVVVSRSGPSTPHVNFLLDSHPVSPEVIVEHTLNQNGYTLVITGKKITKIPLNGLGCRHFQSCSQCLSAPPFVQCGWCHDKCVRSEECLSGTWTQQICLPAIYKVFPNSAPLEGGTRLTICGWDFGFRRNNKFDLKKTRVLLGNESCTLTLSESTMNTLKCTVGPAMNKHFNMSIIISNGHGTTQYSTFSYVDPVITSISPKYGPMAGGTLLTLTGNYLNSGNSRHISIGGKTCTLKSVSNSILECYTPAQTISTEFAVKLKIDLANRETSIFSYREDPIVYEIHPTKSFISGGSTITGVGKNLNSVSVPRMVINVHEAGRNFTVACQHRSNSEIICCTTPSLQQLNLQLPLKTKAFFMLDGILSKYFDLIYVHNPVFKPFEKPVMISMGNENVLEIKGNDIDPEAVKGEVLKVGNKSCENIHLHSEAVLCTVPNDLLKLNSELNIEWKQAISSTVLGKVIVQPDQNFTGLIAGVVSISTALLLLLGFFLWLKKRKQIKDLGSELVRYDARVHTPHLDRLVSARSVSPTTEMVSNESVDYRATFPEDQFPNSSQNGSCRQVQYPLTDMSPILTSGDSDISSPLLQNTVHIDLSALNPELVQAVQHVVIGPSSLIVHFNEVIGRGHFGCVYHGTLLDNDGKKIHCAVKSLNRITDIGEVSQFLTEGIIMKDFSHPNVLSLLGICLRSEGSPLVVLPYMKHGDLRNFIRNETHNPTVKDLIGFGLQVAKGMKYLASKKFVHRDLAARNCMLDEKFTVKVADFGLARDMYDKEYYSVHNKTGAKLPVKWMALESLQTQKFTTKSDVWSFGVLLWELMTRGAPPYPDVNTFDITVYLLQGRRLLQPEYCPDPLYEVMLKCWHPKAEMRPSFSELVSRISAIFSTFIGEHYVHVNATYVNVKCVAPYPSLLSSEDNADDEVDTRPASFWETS
Sequence of Dihydroorotate dehydrogenase (quinone), mitochondrial (Q02127 whole entry, the tested form may be a part): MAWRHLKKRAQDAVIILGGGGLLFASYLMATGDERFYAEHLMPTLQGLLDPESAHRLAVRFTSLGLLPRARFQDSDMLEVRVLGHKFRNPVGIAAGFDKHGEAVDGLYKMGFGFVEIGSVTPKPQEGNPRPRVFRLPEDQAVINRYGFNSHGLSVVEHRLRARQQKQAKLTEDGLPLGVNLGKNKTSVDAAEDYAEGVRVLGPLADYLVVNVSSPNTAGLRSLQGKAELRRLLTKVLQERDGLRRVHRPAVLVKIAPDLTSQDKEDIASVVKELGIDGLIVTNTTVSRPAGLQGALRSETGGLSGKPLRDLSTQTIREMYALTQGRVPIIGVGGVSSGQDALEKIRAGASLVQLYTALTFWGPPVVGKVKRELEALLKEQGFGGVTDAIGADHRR
Sequence of Serine/threonine-protein kinase PLK1 (P53350 whole entry): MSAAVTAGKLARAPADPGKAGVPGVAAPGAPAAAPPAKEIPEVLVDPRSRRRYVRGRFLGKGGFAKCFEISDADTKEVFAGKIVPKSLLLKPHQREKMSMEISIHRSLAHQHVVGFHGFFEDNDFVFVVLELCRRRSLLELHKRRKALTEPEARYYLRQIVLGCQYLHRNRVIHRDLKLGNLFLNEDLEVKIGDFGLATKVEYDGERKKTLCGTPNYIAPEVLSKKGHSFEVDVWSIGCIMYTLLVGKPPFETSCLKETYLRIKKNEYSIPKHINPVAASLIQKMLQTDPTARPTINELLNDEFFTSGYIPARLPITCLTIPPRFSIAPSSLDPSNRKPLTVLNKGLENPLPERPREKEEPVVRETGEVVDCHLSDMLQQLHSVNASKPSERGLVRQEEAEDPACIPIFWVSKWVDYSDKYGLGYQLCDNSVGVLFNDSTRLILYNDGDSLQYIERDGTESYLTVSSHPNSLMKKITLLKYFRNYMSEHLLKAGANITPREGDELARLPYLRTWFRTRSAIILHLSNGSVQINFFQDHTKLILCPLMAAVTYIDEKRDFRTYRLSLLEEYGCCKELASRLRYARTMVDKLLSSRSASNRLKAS

COc1c(O)cc(O)c2c(=O)cc(-c3ccccc3)oc12 [WOGONIN]
IC50 (MCF7 [1]): 30 µM

Cc1cc(O)cc2oc(=O)cc(CNCc3cn(-c4ccc(Br)cc4)nn3)c12
inhibition at 10 µM (U-937 [2]): 62% | IC50 (U-937 [3]): 8.01 µM

O=C(CCNC(=O)c1ccc(CO)cc1)N[C@@H](Cc1cnnn1CCCCCCCCc1ccccc1)C(=O)NCc1cnnn1CCP(=O)(O)O
IC50 [4]: 3.37 µM

C=C[C@H]1CN2CC[C@H]1C[C@H]2[C@H](O)c1cc(-c2cn(-c3ccc(O)cc3)nn2)nc2ccc(OC)cc12
IC50 (HT-29 [5]): 1.21 µM | Ratio IC50 (HT-29 [6]): 8

NC(=O)c1cc(F)c(F)cc1-n1cc(COc2ccc(C(F)(F)F)cc2)nn1
IC50 [7]: 2.1 µM

CCc1ccc(-n2cc(CNC(=O)C(=O)c3cc4ccccc4[nH]3)nn2)cc1
Activity (Rattus norvegicus): 76.9% | IC50 (DU-145): 8.17 µM | IC50 [8]: 7.73 µM | IC50 [9]: 0.12 µM

COc1ccc(-n2nnc3c2CCC2(C=Cc4cc(Cl)ccc4O2)C3)cc1 (centres undefined)
MIC [10]: 4.11 µM (≈ 1.56 µg/mL)

COc1cc(-c2cc(COc3ccccc3-c3nc4ccccc4o3)on2)ccc1OCc1cn(CC(=O)NCc2ccco2)nn1
IC50 (A549 [11]): 2.59 µM | IC50 (HeLa [12]): 1.77 µM | Activity (A549 [13]): 49.43% | Activity (HeLa [14]): 42.58%

O=C1C(=O)N(CCn2cc(COCCOc3ccc(/C(=C(/CCCl)c4ccccc4)c4ccccc4)cc3)nn2)c2c(Br)cc(Br)cc21
IC50 (MCF7 [15]): 1.56 µM

O=C(Cn1cc(CSc2ccc(Cl)cc2)nn1)OCc1ccc(Cl)cc1
MIC [16]: 13.8 µM (≈ 5.63 µg/mL) | MIC (Pseudomonas aeruginosa): 13.8 µM (≈ 5.63 µg/mL) | MIC (Escherichia coli [17]): 13.8 µM (≈ 5.63 µg/mL) | MIC (Candida albicans): 13.8 µM (≈ 5.63 µg/mL)

CCc1ccc(-n2cc(CCC(=O)Nc3c(-c4ccccc4)[nH]c4ccccc34)nn2)cc1
inhibition [18]: 60.8%

COc1ccc(NC(=O)NCc2cn(Cc3ccc(Cl)cc3Cl)nn2)cc1
IC50 (Urease): 22.8 µM

Fc1cccc(Cl)c1Cn1nncc1CN1CCN(C(c2ccccc2)c2ccccc2)CC1
diameter of the inhibition zone (DIZ) (Escherichia coli [19]): 15.63 mm | diameter of the inhibition zone (DIZ) (Staphylococcus aureus): 16.33 mm

COc1ccc(-n2nnc3c2CCC2(C=Cc4cc(C)ccc4O2)C3)cc1 (centres undefined)
MIC [10]: 4.34 µM (≈ 1.56 µg/mL)

Cc1ccc2c(c1)C=CC1(CCc3c(nnn3-c3ccccc3)C1)O2 (centres undefined)
MIC [10]: 4.74 µM (≈ 1.56 µg/mL)

Clc1ccc(Cn2nncc2CN2CCN(C(c3ccccc3)c3ccccc3)CC2)c(Cl)c1
diameter of the inhibition zone (DIZ) (Escherichia coli [19]): 16.15 mm | diameter of the inhibition zone (DIZ) (Staphylococcus aureus): 16.45 mm

Cn1c(=O)c2c3cc(F)ccc3c(=O)n(Cc3cn(Cc4ccccc4)nn3)c2n(C)c1=O
IC50 [20]: 6.02 µM

O=c1oc2ccccc2c2c1cnn2Cc1cn(-c2c(Cl)cc(Cl)cc2Cl)nn1
IC50 (Cholinesterase [21]): 18 µM | IC50 [22]: 21 µM | inhibition [23]: 72%

O=C(Cn1cc(CSc2ccc(Br)cc2)nn1)OCc1ccc(Cl)cc1
MIC (Bacillus subtilis): 15.3 µM (≈ 6.93 µg/mL) | MIC [16]: 15.3 µM (≈ 6.93 µg/mL) | MIC (Pseudomonas aeruginosa): 15.3 µM (≈ 6.93 µg/mL) | MIC (Escherichia coli [17]): 15.3 µM (≈ 6.93 µg/mL) | MIC (Candida albicans): 15.3 µM (≈ 6.93 µg/mL)

COc1cc(Cn2cc(C(=O)c3c(-c4ccccc4)nc4ccccn34)nn2)cc(OC)c1OC
IC50 (A549 [24]): 0.51 µM | IC50 (DU-145): 1.04 µM

O=c1oc2ccccc2c2nn(Cc3cn(-c4c(Cl)cc(Cl)cc4Cl)nn3)cc12
IC50 (Cholinesterase [21]): 29 µM | IC50 [22]: 24 µM | inhibition [23]: 58%

O=C1CCC(N2C(=O)c3cccc(NC(=O)CCCCCCCn4cc(COc5c(O)cc(O)c6c(=O)cc(-c7ccccc7)oc56)nn4)c3C2=O)C(=O)N1 (centres undefined)
IC50 (MCF7 [1]): 17 µM

O=C(Nc1ccc(Oc2ncnc3ccsc23)c(F)c1)c1nnn(-c2ccc(Cl)cc2)c1C(F)(F)F
IC50 (HepG2 [25]): 0.5 µM | IC50 (A549 [26]): 0.9 µM | IC50 [27]: 0.016 µM | Ratio IC50 (MCF7 [28]): 3.7 - 5.4 | Ratio IC50 (HepG2 [29]): 3.7 - 5.4 | Ratio IC50 (A549 [30]): 3.7 - 5.4 | IC50 (MCF7 [1]): 1.1 µM

O=C(CCCCC1CCSS1)NCc1cn(CCCCOc2ccc(-c3cc4c(ccc5ccccc54)oc3=O)cc2)nn1 (centres undefined)
IC50 (Acetylcholinesterase): 7.3 µM | IC50 (Cholinesterase [31]): 68.6 µM

COC(=O)[C@H](CC(C)C)NC(=O)c1cn(-c2ccccc2N)nn1
IC50 (Leishmania major): 11 µg/mL (≈ 33.2 µM)

COc1ccc(-c2ccc(O[C@H](C)Cn3cc(-c4ccc(C(F)(F)F)cc4)nn3)c(OC)c2)cc1
IC50 (Alpha glucosidase): 14.2 µM

C=C(C)[C@@H]1CC[C@]2(COC(=O)c3cn([C@H]4C[C@H](n5cc(C)c(=O)[nH]c5=O)O[C@@H]4CO)nn3)CC[C@]3(C)[C@H](CC[C@@H]4[C@@]5(C)CCC(=O)C(C)(C)[C@@H]5CC[C@]43C)[C@@H]12
Ratio IC50 (SNB-19 [32]): 5 | IC50 (SNB-19 [33]): 0.17 µM

Cc1cc(O)c(C(=O)/C=C/c2ccc(OCc3cn(Cc4ccc(Br)cc4)nn3)cc2)c(=O)o1
MIC (Escherichia coli [34]): 3 µM (≈ 1.57 µg/mL)

O=c1c2ccccc2nc(SCc2cn(Cc3ccc(Br)cc3)nn2)n1CCc1ccccc1
Ki [35]: 117 µM
